Target: T1, recombinant human GST-SYK (Homo sapiens, UniProt P43405)
T1 construct: purchased Carna Biosciences 08-176
Assay: Homogeneous Time-Resolved Fluorescence (HTRF) assay for the recombinant human Syk enzyme
Type: biochemical
Settings: HTRF assay, recombinant human GST-SYK; IC50 given as class symbols; read-out: rhSYK Activity
Procedure, shortened: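 Phosphorylation of a biotinylated Syk substrate peptide (250 nM) was run for 45 min at room temperature with 25 μM ATP and 5 mM Mg. It followed a 10-min preincubation of GST-hSYK ([…]) with compound in 15 mM Tris-HCl pH 7.5, 2 mM DTT. Product was detected by time-resolved fluorescence using a europium anti-phosphotyrosine antibody plus SA-APC in EDTA-containing quench buffer.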

Row | IC50 [nM] | Structure (SMILES)
1 | < 100 | Cc1cc(Nc2nccc(C(F)(F)F)n2)cc(-c2ccc(NCC(=O)NCC(=O)O)nc2)c1 [Example 7.138, N-[5-(3-methyl-5-{[4-(trifluoromethyl)pyrimidin-2-yl]amino}phenyl)pyridin-2-yl]glycylglycine]
2 | < 100 | Cc1cc(Nc2nccc(C(F)(F)F)n2)cc(-c2ccc(N3CCN(CCCC(=O)O)CC3)nc2)c1 [Example 7.139, 4-{4-[5-(3-methyl-5-{[4-(trifluoromethyl)pyrimidin-2-yl]amino}phenyl)pyridin-2-yl]piperazin-1-yl}butanoic acid]
3 | < 100 | Cc1cc(Nc2nccc(C(F)(F)F)n2)cc(-c2ccc(N3CCN(CC(=O)O)CC3)nc2)c1 [Example 7.140, {4-[5-(3-methyl-5-{[4-(trifluoromethyl)pyrimidin-2-yl]amino}phenyl)pyridin-2-yl]piperazin-1-yl}acetic acid]
4 | < 100 | Cc1cc(Nc2nccc(C(F)(F)F)n2)cc(-c2ccc(N3CCC(C(=O)N4CCC(C(=O)O)CC4)CC3)nc2)c1 [Example 7.141, 1-({1-[5-(3-methyl-5-{[4-(trifluoromethyl)pyrimidin-2-yl]amino}phenyl)pyridin-2-yl]piperidin-4-yl}carbonyl)piperidine-4-carboxylic acid]
5 | < 100 | Cc1cc(Nc2nccc(C(F)(F)F)n2)cc(-c2ccc(N[C@H]3CC[C@@H](C(=O)O)CC3)nc2)c1 [Example 7.142, cis-4-{[5-(3-methyl-5-{[4-(trifluoromethyl)pyrimidin-2-yl]amino}phenyl)pyridin-2-yl]amino}cyclohexanecarboxylic acid]
6 | < 100 | Cc1cc(Nc2nccc(C(F)(F)F)n2)cc(-c2ccc(N[C@H]3CC[C@H](C(=O)O)CC3)nc2)c1 [Example 7.143, trans-4-{[5-(3-methyl-5-{[4-(trifluoromethyl)pyrimidin-2-yl]amino}phenyl)pyridin-2-yl]amino}cyclohexanecarboxylic acid]
7 | < 100 | Cc1cc(Nc2nccc(C(F)(F)F)n2)cc(-c2ccc(NC[C@H]3CC[C@H](C(=O)O)CC3)nc2)c1 [Example 7.144, trans-4-({[5-(3-methyl-5-{[4-(trifluoromethyl)pyrimidin-2-yl]amino}phenyl)pyridin-2-yl]amino}methyl)cyclohexanecarboxylic acid]
8 | < 100 | Cc1cc(Nc2nccc(C(F)(F)F)n2)cc(-c2ccc(N3CC(C4CCC(C(=O)O)CC4)C3)nc2)c1 (centres unmarked) [Example 7.145, 4-{1-[5-(3-methyl-5-{[4-(trifluoromethyl)pyrimidin-2-yl]amino}phenyl)pyridin-2-yl]azetidin-3-yl}cyclohexanecarboxylic acid]
9 | < 100 | Cc1cc(Nc2nccc(C(F)(F)F)n2)cc(-c2ccc(N3CC(C4CCCC(C(=O)O)C4)C3)nc2)c1 (centres unmarked) [Example 7.146, 3-{1-[5-(3-methyl-5-{[4-(trifluoromethyl)pyrimidin-2-yl]amino}phenyl)pyridin-2-yl]azetidin-3-yl}cyclohexanecarboxylic acid]
10 | < 100 | Cc1cc(Nc2nccc(C(F)(F)F)n2)cc(-c2ccc(N3CCC([C@@H]4CCCC[C@H]4C(=O)O)CC3)nc2)c1 [Example 7.147, (1R,2S)-2-{1-[5-(3-methyl-5-{[4-(trifluoromethyl)pyrimidin-2-yl]amino}phenyl)pyridin-2-yl]piperidin-4-yl}cyclohexanecarboxylic acid]
11 | < 100 | Cc1cc(Nc2nccc(C(F)(F)F)n2)cc(-c2ccc(NCC3CCC(C(=O)O)CC3)nc2)c1 (centres unmarked) [Example 7.148, 4-({[5-(3-methyl-5-{[4-(trifluoromethyl)pyrimidin-2-yl]amino}phenyl)pyridin-2-yl]amino}methyl)cyclohexanecarboxylic acid]
12 | < 100 | Cc1cc(Nc2nccc(C(F)(F)F)n2)cc(-c2ccc(N3CCC[C@@H](C(=O)N4CCC[C@@H](C(=O)O)C4)C3)nc2)c1 [Example 7.149, (3R)-1-({(3R)-1-[5-(3-methyl-5-{[4-(trifluoromethyl)pyrimidin-2-yl]amino}phenyl)pyridin-2-yl]piperidin-3-yl}carbonyl)piperidine-3-carboxylic acid]
13 | < 100 | Cc1cc(Nc2nccc(C(F)(F)F)n2)cc(-c2ccc(N3CCC[C@@H](C(=O)N4CCC[C@H](C(=O)O)C4)C3)nc2)c1 [Example 7.150, (3S)-1-({(3R)-1-[5-(3-methyl-5-{[4-(trifluoromethyl)pyrimidin-2-yl]amino}phenyl)pyridin-2-yl]piperidin-3-yl}carbonyl)piperidine-3-carboxylic acid]
14 | < 100 | Cc1cc(Nc2nccc(C(F)(F)F)n2)cc(-c2ccc(N3CCC(N4CC(C(=O)O)CC4=O)CC3)nc2)c1 (centres unmarked) [Example 7.151, 1-{1-[5-(3-methyl-5-{[4-(trifluoromethyl)pyrimidin-2-yl]amino}phenyl)pyridin-2-yl]piperidin-4-yl}-5-oxopyrrolidine-3-carboxylic acid]
15 | < 100 | Cc1cc(Nc2ncc(Br)c(C(F)(F)F)n2)cc(-c2ccc(NC(C)(C)C(=O)O)nc2)c1 [Example 7.152]
16 | < 100 | Cc1cc(Nc2nccc(C(F)(F)F)n2)cc(-c2ccc(N(C)CC(N)=O)nc2)c1 [Example 7.153, N~2~-methyl-N~2~-[5-(3-methyl-5-{[4-(trifluoromethyl)pyrimidin-2-yl]amino}phenyl)pyridin-2-yl]glycinamide]

Row | IC50 [nM] | Structure (SMILES)
17 | < 100 | Cc1cc(Nc2nccc(C(F)(F)F)n2)cc(-c2ccc(N[C@H](C)C(=O)O)nc2)c1 [Example 7.154, N-[5-(3-methyl-5-{[4-(trifluoromethyl)pyrimidin-2-yl]amino}phenyl)pyridin-2-yl]-D-alanine]
18 | < 100 | Cc1cc(Nc2nccc(C(F)(F)F)n2)cc(-c2ccc(N[C@@H](Cc3ccccc3)C(=O)O)nc2)c1 [Example 7.155, N-[5-(3-methyl-5-{[4-(trifluoromethyl)pyrimidin-2-yl]amino}phenyl)pyridin-2-yl]-L-phenylalanine]
19 | < 100 | Cc1cc(Nc2nccc(C(F)(F)F)n2)cc(-c2ccc(NC3CCNC3=O)nc2)c1 (centres unmarked) [Example 7.157, 3-{[5-(3-methyl-5-{[4-(trifluoromethyl)pyrimidin-2-yl]amino}phenyl)pyridin-2-yl]amino}pyrrolidin-2-one]
20 | < 100 | Cc1cc(Nc2ncc(F)c(C3CC3)n2)cc(-c2ccc(NC3CCNC3=O)nc2)c1 (centres unmarked) [Example 7.158, 3-[(5-{3-[(4-cyclopropyl-5-fluoropyrimidin-2-yl)amino]-5-methylphenyl}pyridin-2-yl)amino]pyrrolidin-2-one]
21 | < 100 | Cc1cc(Nc2ncc(F)c(C3CC3)n2)cc(-c2ccc(NC(C)(C)C(=O)O)nc2)c1 [Example 7.159, N-(5-{3-[(4-cyclopropyl-5-fluoropyrimidin-2-yl)amino]-5-methylphenyl}pyridin-2-yl)-2-methylalanine]
22 | < 100 | O=C(O)[C@@H]1CCN1c1ccc(-c2cc(F)cc(Nc3ncc(F)c(C4CC4)n3)c2)cn1 [Example 7.160, (2S)-1-(5-{3-[(4-cyclopropyl-5-fluoropyrimidin-2-yl)amino]-5-fluorophenyl}pyridin-2-yl)azetidine-2-carboxylic acid]
23 | < 100 | Cc1cc(Nc2ncc(F)c(C3CC3)n2)cc(-c2ccc(N3CC[C@H]3C(=O)O)nc2)c1 [Example 7.161, (2S)-1-(5-{3-[(4-cyclopropyl-5-fluoropyrimidin-2-yl)amino]-5-methylphenyl}pyridin-2-yl)azetidine-2-carboxylic acid]
24 | < 100 | COC(=O)CS(=O)(=O)Nc1ccc(-c2cc(C)cc(Nc3nccc(C(F)(F)F)n3)c2)cn1 [Example 8.1, Methyl {[5-(3-methyl-5-{[4-(trifluoromethyl)pyrimidin-2-yl]amino}phenyl)pyridin-2-yl]sulfamoyl}acetate]
25 | < 100 | Cc1cc(Nc2nccc(C(F)(F)F)n2)cc(-c2ccc(NS(=O)(=O)CC(=O)O)nc2)c1 [Example 8.2, {[5-(3-Methyl-5-{[4-(trifluoromethyl)pyrimidin-2-yl]amino}phenyl)pyridin-2-yl]sulfamoyl}acetic acid]
26 | < 100 | COC(=O)CC(=O)Nc1ccc(-c2cc(C)cc(Nc3nccc(C(F)(F)F)n3)c2)cn1 [Example 8.3, methyl 3-{[5-(3-methyl-5-{[4-(trifluoromethyl)pyrimidin-2-yl]amino}phenyl)pyridin-2-yl]amino}-3-oxopropanoate]
27 | < 100 | Cc1cc(Nc2nccc(C(F)(F)F)n2)cc(-c2ccc(NC(=O)CC(=O)O)nc2)c1 [Example 8.4, 3-{[5-(3-methyl-5-{[4-(trifluoromethyl)pyrimidin-2-yl]amino}phenyl)pyridin-2-yl]amino}-3-oxopropanoic acid]
28 | < 100 | Cc1cc(Nc2nccc(C(F)(F)F)n2)cc(-c2ccc(C(C)(O)CO)nc2)c1 (centres unmarked) [Example 9.1, 2-[5-(3-Methyl-5-{[4-(trifluoromethyl)pyrimidin-2-yl]amino}phenyl)pyridin-2-yl]propane-1,2-diol]
29 | < 100 | Cc1cc(Nc2nccc(C(F)(F)F)n2)cc(-c2ccnc(C3(O)CCC(=O)CC3)c2)c1 [Example 9.2, 4-Hydroxy-4-[4-(3-methyl-5-{[4-(trifluoromethyl)pyrimidin-2-yl]amino}phenyl)pyridin-2-yl]cyclohexanone]
30 | < 100 | Cc1cc(Nc2nccc(C(F)(F)F)n2)cc(-c2ccnc([C@]3(O)CC[C@@H](O)CC3)c2)c1 [Example 9.3, Cis-1-[4-(3-methyl-5-{[4-(trifluoromethyl)pyrimidin-2-yl]amino}phenyl)pyridine-2-yl]cyclohexane-1,4-diol]
31 | < 100 | Cc1cc(Nc2nccc(C(F)(F)F)n2)cc(-c2cncc(C3(O)CCC(C(=O)O)C3)c2)c1 (centres unmarked) [Example 9.5, 3-Hydroxy-3-[5-(3-methyl-5-{[4-(trifluoromethyl)pyrimidin-2-yl]amino}phenyl)pyridin-3-yl]cyclopentanecarboxylic acid]

Same assay, conditions: recombinant GST-hSYK, 25 μM ATP, HTRF; read-out: IC50 (inhibition of human Syk activity)

Row | IC50 [nM] | Structure (SMILES)
32 | 17.9 | Cc1cc(Nc2nccc(C(F)(F)F)n2)cc(-c2ccc(C(C)(O)CO)nc2)c1 (centres unmarked) [Example 9.1, 2-[5-(3-Methyl-5-{[4-(trifluoromethyl)pyrimidin-2-yl]amino}phenyl)pyridin-2-yl]propane-1,2-diol]

— US9376418B2, “Substituted pyridine spleen tyrosine kinase (SYK) inhibitors” (Merck Sharp & Dohme Corp., priority 2012, dated 2016)
